Source: patent EP0904260B1, “INHIBITION OF MATRIX METALLOPROTEASES BY 2-(OMEGA-AROYLALKYL)-4-BIARYL-OXOBUTYRIC ACIDS” (Bayer Corporation, priority 1996, dated 1997)

What was measured:
MMP-3 = biological target: T1, MMP-3 (Homo sapiens, UniProt P08254); assay type: biochemical; conditions: 6 µM P218 substrate, approximately 0.5 to 0.8 nM MMP, 25 min. at 37°C, pH 6.5
T1 construct: made in house; host or cells: CHO cells
Description: (§1) The P218 quenched fluorescence assay (Microfluorometric Profiling Assay) is a modification of that originally described by Knight, et al., FEBS Lett. 296, 263, 1992 for a related substance and a variety of matrix metalloproteinases (MMPs) in cuvettes. The assay was run with each invention compound and the three MMPs. MMP-3, MMP-9 and MMP-2, analyzed in parallel. adapted as follows for a 96-well microtiter plate and a Hamilton AT® workstation.
(§2) P218 Fluorogenic Substrate: P218 is a synthetic substrate containing a 4-acetyl-7-methoxycoumarin ( MCA) group in the N-terminal position and a 3-[2,4-dinitrophenyl]-L-2,3-diaminopropionyl (DPA) group internally. This is a modification of a peptide reported by Knight (1992) that was used as a substrate for matrix metalloptoteinases. Once the P218 peptide is cleaved (putative clip site at the Ala-Leu bond), the fluorescence of the MCA group can be detected on a fluorometer with excitation at 328 nm and emission at 393 nm. P218 is currently being produced by BACHEM Bioscience, Inc.exclusively for the Bayer Corporation. P218 has the structure: [formula]
Recombinant Human CHO Pro-MMP-3: Human CHO pro-stromelysin-257 (pro-MMP-3) was expressed and purified as described by Housley, et al., J. Biol. Chem. 268, 4481, 1993.
Activation of Pro-MMP-3: Pro-MMP-3 at 1.72 µM (100 µg/mL) in 5 mM Tris at pH 7.5, 5 mM CaCl2, 25 mM NaCl, and 0.005% Brij-35 (MMP-3 activation buffer) was activated by incubation with TPCK (N-tosyl-(L)-phenylalanine chioromethyl ketone) trypsin (1:100 w/w to pro-MMP-3) at 25 °C for 30 min. The reaction was stopped by addition of soybean trypsin inhibitor (SBTI; 5:1 w/w to trypsin concentration). This activation protocol results in the formation of 45 kDa active MMP-3, which still contains the C-tenninal portion of the enzyme.
(§3) Hamiltion Microlab AT Plus: The MMP-Profiling Assay was performed robotically on a Hamilton MicroLab AT Plus®. The Hamilton was programmed to: (1) serially dilute up to 11 potential inhibitors automatically from a 2.5 mM stock in 100% DMSO; (2) distribute substrate followed by inhibitor into a 96 well Cytofluor plate; and (3) add a single enzyme to the plate with mixing to start the reaction. Subsequent plates for each additional enzyme were prepared automatically by beginning the program at the substrate addition point, remixing the diluted inhibitors and beginning the reaction by addition of enzyme. In this way, all MMP assays were done using the same inhibitor dilutions.
(§4) Millipore Cytofluor II. Following incubation, the plate was read on a Cytofluor II fluoromeiric plate reader with excitation at 340 nm and emission at 395 nm with the gain set at 80.
(§5) Microfluorometric Reaction Buffer (MRB): Dilution of test compounds, enzymes, and P218 substrate for the microfluorometric assay were made in microfluorometric reaction buffer consisting of 50 mM 2-(N-morpholino)ethanesulfonic acid (MES) at pH 6.5 with 10 mM CaCl2, 150 mM NaCl. 0.005% Brij-35 and 1% DMSO.
(§6) MMP Microfluorometric Profiling Assay. The assay was done with a final substrate concentration of 6 µM P218 and approximately 0.5 to 0.8 nM MMP with variable drug concentrations. The Hamilton was programmed to serially dilute up to 11 compounds from a 2.5 mM stock (100% DMSO) to 10x the final compounds concentrations in the assay. Initially, the instrument delivered various amounts of microfluorometric reaction buffer (MRB) to a 96 tube rack of 1 mL Marsh dilution tubes. The instrument then picked up 20 µL of inhibitor (2.5 mM) from the sample rack and mixes it with a buffer in row A of the Marsh rack, resulting in a 50 µM drug concentration. The inhibitors were then serially diluted to 10, 5, 1, .2, 0.05 and 0.01 µM. […] The instrument re-mixed and loads 14.5 µL of diluted compound from rows A to G in the Marsh rack to corresponding rows in the microtiter plate. (Row H represents the "background" row and 39.5 µL of MRB was delivered in placed of drug or enzyme). […]

MMP-9 = biological target: T2, MMP-9 (Homo sapiens, UniProt P14780); assay type: biochemical; conditions: 6 µM P218 substrate, approximately 0.5 to 0.8 nM MMP, 25 min. at 37°C, pH 6.5
T2 construct: made in house
Description: as §1, §2
Recombinant Human Pro-MMP-9: Human pro-gelatinase B (pro-MMP-9) derived from U937 cDNA as described by Wilhelm, et al. J. Biol. Chem. 264, 17213, 1989 was expressed as the full-length form using a baculovirus protein expression system. The pro-enzyme was purified using methods previously described by Hibbs, et al. J. Biol. Chem. 260, 2493, 1984.
Activation of Pro-MMP-9: […] 20 µg/mL in 50 mM Tris at pH 7.4, 10mM […], 150 mM NaCl, and 0.005% Brij-35 (MMP-9 activation buffer) was activated by incubation with 0 5 mM p-aminophenylmercuric acetate (APMA) for 3.5 h at 37 °C. The enzyme was dialyzed against the same buffer to remove the APMA.
as §3, §4, §5, §6

MMP-2 = biological target: T3, MMP-2 (Homo sapiens, UniProt P08253); experiment: biochemical
T3 sequence (P08253 110-660): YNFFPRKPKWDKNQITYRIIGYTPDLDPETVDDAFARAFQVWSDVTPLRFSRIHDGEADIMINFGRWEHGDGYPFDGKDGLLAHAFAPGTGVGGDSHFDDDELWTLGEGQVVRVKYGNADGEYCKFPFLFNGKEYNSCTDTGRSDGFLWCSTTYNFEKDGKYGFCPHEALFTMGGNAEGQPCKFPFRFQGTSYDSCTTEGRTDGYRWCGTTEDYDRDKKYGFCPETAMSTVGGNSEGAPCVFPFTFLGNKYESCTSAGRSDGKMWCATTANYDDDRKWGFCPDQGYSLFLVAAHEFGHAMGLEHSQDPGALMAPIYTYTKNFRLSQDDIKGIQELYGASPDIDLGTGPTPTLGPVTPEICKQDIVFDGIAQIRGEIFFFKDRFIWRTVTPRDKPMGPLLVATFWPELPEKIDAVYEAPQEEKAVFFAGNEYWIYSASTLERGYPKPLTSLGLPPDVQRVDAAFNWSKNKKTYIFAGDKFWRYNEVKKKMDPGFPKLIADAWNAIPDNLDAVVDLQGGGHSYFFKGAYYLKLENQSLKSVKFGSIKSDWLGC

T2 sequence (P14780 107-707 limits assumed): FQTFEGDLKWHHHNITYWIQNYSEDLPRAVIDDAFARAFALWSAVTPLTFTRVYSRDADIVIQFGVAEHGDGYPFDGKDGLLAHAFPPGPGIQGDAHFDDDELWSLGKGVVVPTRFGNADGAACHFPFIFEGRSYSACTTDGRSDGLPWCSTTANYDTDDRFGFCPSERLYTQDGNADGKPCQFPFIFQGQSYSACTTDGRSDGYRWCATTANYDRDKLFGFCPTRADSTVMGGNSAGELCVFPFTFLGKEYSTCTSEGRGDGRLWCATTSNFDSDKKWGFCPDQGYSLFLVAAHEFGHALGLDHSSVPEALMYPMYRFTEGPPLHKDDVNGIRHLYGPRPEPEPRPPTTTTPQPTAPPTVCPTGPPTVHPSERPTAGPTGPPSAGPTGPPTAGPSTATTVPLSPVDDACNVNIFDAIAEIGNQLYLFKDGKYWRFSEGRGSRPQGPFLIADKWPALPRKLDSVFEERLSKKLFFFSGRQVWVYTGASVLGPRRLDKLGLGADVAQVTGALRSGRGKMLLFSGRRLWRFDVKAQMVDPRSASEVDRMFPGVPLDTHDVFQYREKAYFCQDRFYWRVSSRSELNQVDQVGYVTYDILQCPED
T1 sequence (P08254 100-477): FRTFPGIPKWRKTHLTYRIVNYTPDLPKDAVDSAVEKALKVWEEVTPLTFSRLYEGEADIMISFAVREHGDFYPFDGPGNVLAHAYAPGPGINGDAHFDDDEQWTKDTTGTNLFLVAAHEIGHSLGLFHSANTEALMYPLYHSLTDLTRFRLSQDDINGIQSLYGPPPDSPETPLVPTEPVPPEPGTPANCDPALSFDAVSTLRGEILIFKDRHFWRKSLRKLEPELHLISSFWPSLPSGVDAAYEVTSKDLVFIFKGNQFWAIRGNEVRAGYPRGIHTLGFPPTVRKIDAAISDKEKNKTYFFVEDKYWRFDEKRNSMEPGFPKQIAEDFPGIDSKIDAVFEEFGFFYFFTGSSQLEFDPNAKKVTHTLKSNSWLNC

Row | Structure (SMILES) | IC50 (MMP-3) | IC50 (MMP-9) | IC50 (MMP-2)
1 | COc1ccc(C(=O)CCCC(CC(=O)c2ccc(-c3ccc(Cl)cc3)cc2)C(=O)O)cc1 (stereo not drawn) [Compound X, 4'-chloro-α-[4-(4-methoxyphenyl)-4-oxobutyl]-γ-oxo-[1,1'-biphenyl]-4-butanoic acid] | 122 nM | 145 nM | 25.1 nM
2 | CC(C)c1ccc(C(=O)CCCC(CC(=O)c2ccc(-c3ccc(Cl)cc3)cc2)C(=O)O)cc1 (stereo not drawn) [Compound XV, 4'-chloro-α-[4-[4-(1-methylethyl)phenyl]-4-oxobutyl]-γ-oxo-[1,1'-biphenyl]-4-butanoic acid] | 130 nM | 133 nM | 35.7 nM
3 | COc1ccccc1C(=O)CCCC(CC(=O)c1ccc(-c2ccc(Cl)cc2)cc1)C(=O)O (stereo not drawn) [Compound XVI, 4'-chloro-α-[4-(2-methoxyphenyl)-4-oxobutyl]-γ-oxo-[1,1'-biphenyl]-4-butanoic acid] | 48.2 nM | 152 nM | 26.2 nM
4 | O=C(CCCC(CC(=O)c1ccc(-c2ccc(Cl)cc2)cc1)C(=O)O)c1ccccc1 (stereo not drawn) [I, 4'-chloro-y-oxo-α-(4-oxo-4-phenylbutyl)-[1,1'-biphenyl]-4-butanoic acid] | 65 nM | 65.7 nM | 9.97 nM
5 | O=C(CCC(CC(=O)c1ccc(-c2ccc(Cl)cc2)cc1)C(=O)O)c1ccccc1 (stereo not drawn) [II, 4'-chloro-y-oxo-α-(3-oxo-3-phenylpropyl)-[1,1'-biphenyl]-4-butanoic acid] | 96 nM | 127 nM | 9.6 nM
6 | O=C(CCCCC(CC(=O)c1ccc(-c2ccc(Cl)cc2)cc1)C(=O)O)c1ccccc1 (stereo not drawn) [III, 4'-chloro-γ-oxo-α-(5-oxo-5-phenylpentyl)-[1,1'-biphenyl]-4-butanoic acid] | 61.1 nM | 52.4 nM | 7.52 nM
7 | O=C(CCCCCC(CC(=O)c1ccc(-c2ccc(Cl)cc2)cc1)C(=O)O)c1ccccc1 (stereo not drawn) [IV, 4'-chloro-γ-oxo-α-(6-oxo-6-phenylhexyl)-[1,1'-biphenyl]-4-butanoic acid] | 109 nM | 175 nM | 34.1 nM
8 | O=C(CCCC(CC(=O)c1ccc(-c2ccc(Cl)cc2)cc1)C(=O)O)c1ccc(Br)cc1 (stereo not drawn) [IX] | 125 nM | 131 nM | 28.3 nM
9 | Cc1ccc(C(=O)CCCC(CC(=O)c2ccc(-c3ccc(Cl)cc3)cc2)C(=O)O)cc1 (stereo not drawn) [VIII, 4'-chloro-α-[4-(4-methylphenyl)-4-oxobutyl]-γ-oxo-[1,1'-biphenyl]-4-butanoic acid] | 69.1 nM | 108 nM | 19 nM
10 | O=C(CCCC(CC(=O)c1ccc(-c2ccc(Cl)cc2)cc1)C(=O)O)c1ccc(Oc2ccccc2)cc1 (stereo not drawn) [VII] | 367 nM | 65.7 nM | 131 nM
11 | Cc1cc(C)c(C(=O)CCCC(CC(=O)c2ccc(-c3ccc(Cl)cc3)cc2)C(=O)O)c(C)c1 (stereo not drawn) [VI] | 39.6 nM | 1310 nM | 30.8 nM
12 | COc1cc(OC)c(C(=O)CCCC(CC(=O)c2ccc(-c3ccc(Cl)cc3)cc2)C(=O)O)c(OC)c1 (stereo not drawn) [V] | 71.7 nM | 132 nM | 8.13 nM
13 | COc1ccc(C(=O)CCCC(CC(=O)c2ccc(-c3ccc(Cl)cc3)cc2)C(=O)O)c(OC)c1 (stereo not drawn) [XII, 4'-chloro-α-[4-(2,4-dimethoxyphenyl)-4-oxobutyl]-γ-oxo-[1,1'-biphenyl]-4-butanoic acid] | 115 nM | 225 nM | 25.1 nM
14 | CC(C)(C)c1ccc(C(=O)CCCC(CC(=O)c2ccc(-c3ccc(Cl)cc3)cc2)C(=O)O)cc1 (stereo not drawn) [XIII] | 222 nM | 167 nM | 71.6 nM
15 | CCc1ccc(C(=O)CCCC(CC(=O)c2ccc(-c3ccc(Cl)cc3)cc2)C(=O)O)cc1 (stereo not drawn) [XIV, 4'-chloro-α-[4-(4-ethylphenyl)-4-oxobutyl]-γ-oxo-[1,1'-biphenyl]-4-butanoic acid] | 89 nM | 126 nM | 29.4 nM
16 | Cc1ccc(C(=O)CCCC(CC(=O)c2ccc(-c3ccc(Cl)cc3)cc2)C(=O)O)cc1C (stereo not drawn) [XI] | 104 nM | 105 nM | 48.3 nM
